Assay results: patent US20040176317A1, “Functionalised maltosyl fluoride as glycosyl donor in the chemo-enzymatic preparation of ratio of oligo-or polysaccharides” (priority 2001, published 2004)

Assay: Storage stability of the lyophilized fluoride
Type: physicochemical
Details: for stability of the fluoride: at −18° C. in the lyophilized form
Procedure: This fluoride is stable at −18° C. in the lyophilized form.

first decomposition compound | stability of the fluoride | Structure (SMILES)
α-maltosyl fluoride | stable | OCC1O[C@H](O[C@@H]2C(CO)O[C@H](F)C(O)C2O)C(O)C(O)[C@@H]1OC1CCCCO1 (stereo partly drawn) [Example 1e, 4-0-tetrahydropyranyl-α-D-glucopyran-osyl-(1→4)-α-D-glucopyranosyl fluoride]
– | stable | OC[C@H]1O[C@H](F)[C@H](O)[C@@H](O)[C@@H]1O[C@H]1O[C@H](CBr)[C@@H](OC2CCCCO2)[C@H](O)[C@H]1O (stereo partly drawn) [Example 4d, 6-bromo-6-deoxy-4-O-tetrahydro-pyranyl-α-D-glucopyranosyl-(1→4)-α-D-glucopyranosyl fluoride]
